In ChEMBL document CHEMBL1153701, “Synthesis and evaluation of antiallodynic and anticonvulsant activity of novel amide and urea derivatives of valproic acid analogues” (2009):
The source made the active and inactive calls. The rule behind the calls is not given here.

How the values were obtained:
[1] = tested on: Mus musculus; assay: Antiepileptic activity in CF1 mouse assessed as inhibition of subcutaneous pentylenetetrazole-induced seizures at 30 mg/kg, ip after 0.5 hrs; assay type: functional, organism-based; set-up: dose 30 mg/kg
[2] = tested on: Mus musculus; assay: Antiepileptic activity in CF1 mouse assessed as inhibition of maximal electroshock-induced seizures at 300 mg/kg, ip after 0.5 hrs; assay type: functional, organism-based; set-up: dose 300 mg/kg
[3] = tested on: Mus musculus; assay: Antiepileptic activity in ip dosed CF1 mouse assessed as inhibition of maximal electroshock-induced seizures; assay type: functional
[4] = tested on: Mus musculus; assay: Neurotoxicity in CF1 mouse assessed as protection against motor impairment at 30 mg/kg, ip after 4 hrs by rotarod test; assay type: functional, organism-based; set-up: dose 30 mg/kg
[5] = tested on: Mus musculus; assay: Neurotoxicity in CF1 mouse assessed as protection against motor impairment at 30 mg/kg, ip after 0.5 hrs by rotarod test; assay type: functional, organism-based; set-up: dose 30 mg/kg
[6] = tested on: Rattus norvegicus; assay: Anticonvulsant activity in albino Sprague-Dawley rat assessed as protection against pilocarpine-induced seizure at 100 mg/kg, ip; assay type: functional, organism-based; set-up: dose 100 mg/kg
[7] = tested on: Mus musculus; assay: Neurotoxicity in CF1 mouse assessed as protection against motor impairment at 300 mg/kg, ip after 4 hrs by rotarod test; assay type: functional, organism-based; set-up: dose 300 mg/kg
[8] = tested on: Mus musculus; assay: Neurotoxicity in CF1 mouse assessed as protection against motor impairment at 100 mg/kg, ip after 4 hrs by rotarod test; assay type: functional, organism-based; set-up: dose 100 mg/kg
[9] = tested on: Mus musculus; assay: Antiepileptic activity in CF1 mouse assessed as inhibition of maximal electroshock-induced seizures at 30 mg/kg, ip after 4 hrs; assay type: functional, organism-based; set-up: dose 30 mg/kg
[10] = tested on: Mus musculus; assay: Antiepileptic activity in CF1 mouse assessed as inhibition of maximal electroshock-induced seizures at 30 mg/kg, ip after 0.5 hrs; assay type: functional, organism-based; set-up: dose 30 mg/kg
[11] = tested on: Mus musculus; assay: Antiepileptic activity in CF1 mouse assessed as inhibition of maximal electroshock-induced seizures at 100 mg/kg, ip after 4 hrs; assay type: functional, organism-based; set-up: dose 100 mg/kg
[12] = tested on: Rattus norvegicus; assay: Antiallodynic activity in ip dosed rat assessed as protection against spinal nerve ligation-induced neuropathic pain; assay type: functional
[13] = tested on: Mus musculus; assay: Antiepileptic activity in CF1 mouse assessed as inhibition of subcutaneous pentylenetetrazole-induced seizures at 300 mg/kg, ip after 4 hrs; assay type: functional, organism-based; set-up: dose 300 mg/kg
[14] = tested on: Mus musculus; assay: Antiepileptic activity in CF1 mouse assessed as inhibition of maximal electroshock-induced seizures at 100 mg/kg, ip after 0.5 hrs; assay type: functional, organism-based; set-up: dose 100 mg/kg
[15] = species on record: Rattus norvegicus; assay: Ratio of ED50 for antiallodynic activity in rat assessed as protection against spinal nerve ligation-induced neuropathic pain to ED50 for antiepileptic activity in rat by maximal electroshock-induced seizures assay; assay type: functional
[16] = tested on: Mus musculus; assay: Antiepileptic activity in CF1 mouse assessed as inhibition of maximal electroshock-induced seizures at 300 mg/kg, ip after 4 hrs; assay type: functional, organism-based; set-up: dose 300 mg/kg
[17] = tested on: Mus musculus; assay: Antiepileptic activity in CF1 mouse assessed as inhibition of subcutaneous pentylenetetrazole-induced seizures at 100 mg/kg, ip after 4 hrs; assay type: functional, organism-based; set-up: dose 100 mg/kg
[18] = tested on: Mus musculus; assay: Neurotoxicity in CF1 mouse assessed as protection against motor impairment at 300 mg/kg, ip after 0.5 hrs by rotarod test; assay type: functional, organism-based; set-up: dose 300 mg/kg
[19] = tested on: Mus musculus; assay: Antiepileptic activity in CF1 mouse assessed as inhibition of subcutaneous pentylenetetrazole-induced seizures at 300 mg/kg, ip after 0.5 hrs; assay type: functional, organism-based; set-up: dose 300 mg/kg
[20] = tested on: Mus musculus; assay: Antiepileptic activity in CF1 mouse assessed as inhibition of subcutaneous pentylenetetrazole-induced seizures at 30 mg/kg, ip after 4 hrs; assay type: functional, organism-based; set-up: dose 30 mg/kg
[21] = tested on: Rattus norvegicus; assay: Antiallodynic activity in rat assessed as protection against spinal nerve ligation-induced neuropathic pain at 80 mg/kg, ip after 30 mins; assay type: functional, organism-based; set-up: dose 80 mg/kg
[22] = tested on: Rattus norvegicus; assay: Anticonvulsant activity in albino Sprague-Dawley rat assessed as protection against pilocarpine-induced seizure at 200 mg/kg, ip treated after 30 mins of pilcarpine challenge; assay type: functional, organism-based; set-up: dose 200 mg/kg
[23] = tested on: Mus musculus; assay: Antiepileptic activity in CF1 mouse assessed as inhibition of subcutaneous pentylenetetrazole-induced seizures at 100 mg/kg, ip after 0.5 hrs; assay type: functional, organism-based; set-up: dose 100 mg/kg
[24] = tested on: Rattus norvegicus; assay: Antiallodynic activity in rat assessed as protection against spinal nerve ligation-induced neuropathic pain at 80 mg/kg, ip after 60 mins; assay type: functional, organism-based; set-up: dose 80 mg/kg
[25] = tested on: Rattus norvegicus; assay: Antiallodynic activity in rat assessed as protection against spinal nerve ligation-induced neuropathic pain at 80 mg/kg, ip after 120 mins; assay type: functional, organism-based; set-up: dose 80 mg/kg
[26] = tested on: Rattus norvegicus; assay: Antiallodynic activity in rat assessed as protection against spinal nerve ligation-induced neuropathic pain at 80 mg/kg, ip after 180 mins; assay type: functional, organism-based; set-up: dose 80 mg/kg
[27] = tested on: Mus musculus; assay: Antiepileptic activity in ip dosed CF1 mouse assessed as inhibition of subcutaneous pentylenetetrazole-induced seizures; assay type: functional
[28] = tested on: Mus musculus; assay: Neurotoxicity in CF1 mouse assessed as protection against motor impairment at 100 mg/kg, ip after 0.5 hrs by rotarod test; assay type: functional, organism-based; set-up: dose 100 mg/kg
[29] = tested on: Rattus norvegicus; assay: Anticonvulsant activity in ip dosed albino Sprague-Dawley rat assessed as protection against pilocarpine-induced seizure treated after 30 mins of pilcarpine challenge; assay type: functional; details: 0.5 h
[30] = tested on: Rattus norvegicus; assay: Anticonvulsant activity in albino Sprague-Dawley rat assessed as protection against pilocarpine-induced seizure at 37.5 mg/kg, ip; assay type: functional, organism-based; set-up: dose 37.5 mg/kg
[31] = tested on: Rattus norvegicus; assay: Anticonvulsant activity in albino Sprague-Dawley rat assessed as protection against pilocarpine-induced seizure at 75 mg/kg, ip; assay type: functional, organism-based; set-up: dose 75 mg/kg

| SMILES | Activity [1] | Activity [2] | Activity [4] | Activity [5] | Activity [7] | Activity [8] | Activity [9] | Activity [10] | Activity [11] | ED50 [12] | Activity [13] | Activity [14] | ratio [15] | Activity [16] | Activity [17] | Activity [18] | Activity [19] | Activity [20] | Activity [23] | Activity [28] | further results |
| --- | --- | --- | --- | --- | --- | --- | --- | --- | --- | --- | --- | --- | --- | --- | --- | --- | --- | --- | --- | --- | --- |
| CC(C)(C)CC(=O)NC(N)=O | inactive | Active | inactive | inactive | inactive | inactive | inactive | inactive | inactive | 74 mg/kg | inactive | inactive | 0.86 | inactive | inactive | Active | Active | inactive | – | – | ED50 [3]: 64 mg/kg; Activity [6]: Active |
| CCCC(C(=O)NC(N)=O)C(C)C (stereo not given) | inactive | inactive | – | – | inactive | – | inactive | inactive | inactive | – | inactive | inactive | – | Active | inactive | – | Active | inactive | Active | – | Activity [21]: inactive; Activity [22]: Active; Activity [24]: inactive; Activity [25]: inactive; Activity [26]: inactive |
| CCCCC(CC)C(N)=O (stereo not given) | inactive | – | inactive | inactive | – | inactive | inactive | inactive | inactive | – | – | Active | – | inactive | inactive | Active | – | inactive | inactive | inactive | ED50 [27]: 103 mg/kg |
| CCC(C)C(CC)C(=O)NC(N)=O (stereo not given) [CAPURIDE] | inactive | Active | inactive | – | Active | inactive | inactive | inactive | inactive | 49 mg/kg | Active | Active | 0.49 | Active | inactive | Active | Active | inactive | Active | Active | ED50 [29]: 23 mg/kg; Activity [30]: Active; Activity [31]: Active |
